Assay results taken from patent US20100190747A1, “Fused ring compound and use thereof” (priority 2009, published 2010).

Tests used:
delta-5-desaturase = molecular target: T1, delta-5-desaturase (Rattus norvegicus, UniProt Q920R3); assay: Inhibitory activity on delta-5-desaturase (rat liver microsomal fraction, 14C-eicosatrienoic acid, TLC); type: biochemical; settings: test compound at 10 μM, room temperature, 120 minutes
T1 construct: the microsomal fraction of a rat river (10 μl), which had been diluted to 3 mg/ml; from tissue; host or cells: rat liver microsomal fraction
T1 sequence (Q920R3 whole entry): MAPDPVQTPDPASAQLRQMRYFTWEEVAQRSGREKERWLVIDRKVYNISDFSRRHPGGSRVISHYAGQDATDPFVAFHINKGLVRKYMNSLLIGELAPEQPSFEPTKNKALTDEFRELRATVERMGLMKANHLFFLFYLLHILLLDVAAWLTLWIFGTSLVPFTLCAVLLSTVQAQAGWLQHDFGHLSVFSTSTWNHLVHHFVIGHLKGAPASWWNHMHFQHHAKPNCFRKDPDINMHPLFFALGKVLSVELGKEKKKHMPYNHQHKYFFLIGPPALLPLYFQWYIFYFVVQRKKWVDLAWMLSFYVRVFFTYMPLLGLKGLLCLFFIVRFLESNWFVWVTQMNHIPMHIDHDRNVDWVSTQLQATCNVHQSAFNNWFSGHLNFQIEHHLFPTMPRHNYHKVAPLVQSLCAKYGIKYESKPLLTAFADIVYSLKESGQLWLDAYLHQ
In short: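 Rat liver microsomes (3 mg/ml before addition) incubated with test compound at 10 μM, NADH, ATP, CoA and 14C-eicosatrienoic acid in phosphate buffer pH 7.4 with BSA and glutathione, 120 min at room temperature. Lipids saponified, extracted, separated by reverse-phase TLC and imaged; % inhibition reported.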

[1] = test system: atherogenic diet fed apoE-deficient mice; assay: Anti-atherosclerotic and anti-obesity effects in atherogenic diet fed apoE-deficient mice; type: in vivo; settings: 10 mg/kg/day p.o. for 15 weeks, male apoE-deficient mice on high fat diet, vehicle group taken as 100%; for Reduction in atherosclerotic lesion area (%): aorta, oil red O staining
Protocol: Assessments of anti-atherosclerotic effects and anti-obesity effects on atherogenic diet fed apoE-deficient mice were performed by the method described below.
Male apoE-deficient mice of 11-13 week-age (Jacson Lab) conditioned with ordinary diet (Research Diet) in separate cages were allowed to take high fat diet (Research Diet) at libitum for 14 weeks to thereby form atherosclerotic lesions in the aorta. The test compound suspended in 0.5% methyl cellulose solution was forcedly and orally administered to the mice at 10 ml/kg everyday for 15 weeks from 1 week prior to the start of the high fat diet feeding. Body weights were measured on the day of autopsy. The body weight reduction ratio of test compound-administered group was calculated taking the body weight of vehicle-administered group as 100%, to thereby obtain an index for anti-obesity effects. The aorta (from immediately above the aortic valve to the ventral branch of common iliac artery) removed under anesthesia was totally incised after removal of adipose tissue, etc. adhering to the outer membrane of the aorta, to thereby prepare an incised aorta specimen. After formalin fixing, the incised aorta specimen was subjected to staining with oil red O. The thus stained incised aorta specimen was photographed with a digital camera. Subsequently, image analysis using Image Pro program (Planetron, Inc.) was performed to determine the area of atherosclerotic lesions stained red and the total area of the incised specimen (the area of vascular inner wall). The ratio of atherosclerotic lesions (%) was calculated by dividing the area of atherosclerotic lesions by the area of vascular inner wall. The reduction ratio of the atherosclerotic lesion area (%) in test compound-administered group was calculated taking the area of atherosclerotic lesions in vehicle-administered group as 100%, to thereby obtain an index for anti-atherosclerotic effects. All the measurement of the ratio of atherosclerotic lesions was performed in a blind fashion.

ob/ob mice = assay: Anti-diabetic effects in ob/ob mice, a type 2 diabetic model; type: in vivo; settings: 10 mg/kg/day p.o. once a day for 6 weeks; male ob/ob mice; vehicle group 7.1%
Protocol: Anti-diabetic effects in ob/ob mice, a type 2 diabetic model were evaluated as describe next.
Male 9-week-old ob/ob mice (Charls river) habituated for a week were housed individually and freely fed a normal chow (CE-2, Japan Clea). The test compound was suspended in 0.5% methylcellulose solution. Vehicle (0.5% methylcellulose) or the compound was orally administered (5 mL/kg) once a day for 6 weeks. At the end of the treatment, bloods were collected from tail vein. The levels of glycosylated hemoglobin were measured as an index of diabetes severity using automated GHb analyzer (TOSOH Corporation).

Row | Structure (SMILES) | inhibition at 10 µM (delta-5-desaturase) | Reduction in atherosclerotic lesion area (%) [1] | Reduction in body weight (%) [1] | Glycosylated hemoglobin (%) (ob/ob mice)
1 | O=C1Cc2c(nc(OCC(F)(F)F)n(-c3ccc(OCC(F)(F)F)cc3)c2=O)N1 [Example 274, 2-(2,2,2-Trifluoroethoxy)-3-[4-(2,2,2-trifluoroethoxy)phenyl]-5,7-dihydro-3H-pyrrolo[2,3-d]pyrimidine-4,6-dione] | 100% | 26% | 8% | 
2 | O=C1Cc2c(nc(OCC(F)(F)C(F)(F)F)n(-c3ccc(OCC(F)(F)F)cc3)c2=O)N1 [Example 326, 2-(2,2,3,3,3-Pentafluoropropoxy)-3-[4-(2,2,2-trifluoroethoxy)phenyl]-5,7-dihydro-3H-pyrrolo[2,3-d]pyrimidine-4,6-dione] | 102% | 41% | 11% | 6.0%
3 | O=C1Cc2c(nc(SCC3CC3)n(-c3ccc(OCC(F)(F)F)cc3)c2=O)N1 [Example 297, 2-[(Cyclopropylmethyl)sulfanyl]-3-[4-(2,2,2-trifluoroethoxy)phenyl]-5,7-dihydro-3H-pyrrolo[2,3-d]pyrimidine-4,6-dione] | 101% | 26% | 8% | 
4 | CC(C)S(=O)(=O)CCCSc1nc2cc[nH]c2c(=O)n1-c1ccc(OCC2CC2)cc1 [Example 164, 3-[4-(Cyclopropylmethoxy)phenyl]-2-({3-[(1-methylethyl)sulfonyl]propyl}sulfanyl)-3,5-dihydro-4H-pyrrolo[3,2-d]pyrimidin-4-one] | 101% |  |  | 
5 | O=C(CCCSc1nc2cc[nH]c2c(=O)n1-c1ccc(OCC(F)(F)F)cc1)N1CCCCC1 [Example 77, 2-[(4-Oxo-4-piperidin-1-ylbutyl)sulfanyl]-3-[4-(2,2,2-trifluoroethoxy)phenyl]-3,5-dihydro-4H-pyrrolo[3,2-d]pyrimidin-4-one] | 100% |  |  | 
6 | CSc1nc2[nH]ccc2c(=O)n1-c1ccc(OCC(F)(F)F)c(F)c1 [Example 237, 3-[3-Fluoro-4-(2,2,2-trifluoroethoxy)phenyl]-2-(methylsulfanyl)-3,7-dihydro-4H-pyrrolo[2,3-d]pyrimidin-4-one] | 98% |  |  | 
7 | CCSc1nc2c(c(=O)n1-c1ccc(OCC(F)(F)C(F)(F)F)cc1)CC(=O)N2 [Example 269, 2-(Ethylsulfanyl)-3-[4-(2,2,3,3,3-pentafluoropropoxy)phenyl]-5,7-dihydro-3H-pyrrolo[2,3-d]pyrimidine-4,6-dione] | 99% |  |  | 
8 | CSc1nc2c(c(=O)n1-c1ccc(OCC(F)(F)C(F)(F)F)cc1)CC(=O)N2 [Example 303, 2-(Methylsulfanyl)-3-[4-(2,2,3,3,3-pentafluoropropoxy)phenyl]-5,7-dihydro-3H-pyrrolo[2,3-d]pyrimidine-4,6-dione] | 98% |  |  | 
9 | CCCSc1nc2cc[nH]c2c(=O)n1-c1ccc(OCC(F)(F)F)cc1 [Example 105, 2-(Propylsulfanyl)-3-[4-(2,2,2-trifluoroethoxy)phenyl]-3,5-dihydro-4H-pyrrolo[3,2-d]pyrimidin-4-one] | 100% |  |  | 
10 | O=c1c2cc[nH]c2nc(SC(F)F)n1-c1ccc(OCC(F)(F)F)cc1 [Example 223, 2-[(Difluoromethyl)sulfanyl]-3-[4-(2,2,2-trifluoroethoxy)phenyl]-3,7-dihydro-4H-pyrrolo[2,3-d]pyrimidin-4-one] | 103% |  |  | 
